Data reported in US20260191968A1, “PROTAC DEGRADERS OF MLLT1 AND/OR MLLT3” (DARK BLUE THERAPEUTICS LTD, priority 2024, published 2026).

What was measured:
MLLT1 = target: T1, MLLT1 (Homo sapiens, UniProt Q03111); experiment: MLLT1 degradation assay in MV4-11 cells (JESS chemiluminescent detection), three concentrations, 24 h; format: cell-based; details: with respect to DMSO control
T1 construct: host or cells: MV4-11
T1 sequence (Q03111 1-559): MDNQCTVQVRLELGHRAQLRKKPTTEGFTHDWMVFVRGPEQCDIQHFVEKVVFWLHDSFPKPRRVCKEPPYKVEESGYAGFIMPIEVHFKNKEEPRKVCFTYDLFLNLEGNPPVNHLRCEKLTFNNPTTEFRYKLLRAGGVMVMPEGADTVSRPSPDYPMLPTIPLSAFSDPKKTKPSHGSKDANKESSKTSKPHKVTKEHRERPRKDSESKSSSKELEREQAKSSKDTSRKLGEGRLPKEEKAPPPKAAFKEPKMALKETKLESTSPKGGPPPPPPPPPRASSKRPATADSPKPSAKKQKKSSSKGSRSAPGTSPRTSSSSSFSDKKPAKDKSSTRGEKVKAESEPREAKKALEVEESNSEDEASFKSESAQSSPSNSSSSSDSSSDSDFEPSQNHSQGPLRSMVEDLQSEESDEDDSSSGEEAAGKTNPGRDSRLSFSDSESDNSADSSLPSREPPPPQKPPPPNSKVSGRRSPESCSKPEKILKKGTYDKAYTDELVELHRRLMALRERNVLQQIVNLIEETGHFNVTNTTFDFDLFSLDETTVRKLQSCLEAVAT
How it was run: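 MV4-11 cells treated 24 h at 37° C, 5% CO2 with 1000, 100 and 10 nM compound (0.1% DMSO final). MLLT1 quantified by automated capillary chemiluminescent immunodetection; band peak area expressed as % degradation relative to DMSO control.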

MV4-11 cells = experiment: MV4-11 cellular proliferative assay, Assay Format B (CTG 2.0, 168 h); format: cell-based; details: Homo sapiens, 168 h (7 days), CTG 2.0, read-out: IC50 (MV4-11 cellular proliferative assay, Assay format B)
Method: MV4-11 cells at a confluency of ~50-80% was used for cell growth assay. 600 cells/well in a 384-well opaque cell culture plate (6007680; Perkin Elmer) were seeded in 40 μL of complete medium (IMDM+10% FBS+1X Penicillin-Streptomycin). Cells were incubated overnight at 37° C., 5% CO2. 10 mM DMSO stocks were prepared, cells were treated with 10 concentrations of test compounds starting from 1 uM or 100 nM, 3-fold dilution in 10 uL (5×concentration) of complete medium. Final DMSO concentration was 0.3%. Culture plates were centrifuged at 40×g, 30s. Cells were incubated with compounds for 168 h (7 days). After 7 days, 20 uL CTG 2.0 reagent (G9242; Promega) was added per well and luminescence reading was taken in Envision Xcite 2105 multimode plate reader. Data was analyzed in GraphPad Prism 10.0 and data was shown as % viability with respect to DMSO control and dose-response curves were generated using four parameter logistic regression. Assay quality was determined by z-factor calculation using positive and negative controls.

| Structure (SMILES) | MLLT1% Degradation @ 0.01 μM (MLLT1) | MLLT1% Degradation @ 0.1 μM (MLLT1) | MLLT1% Degradation @ 1 μM (MLLT1) | IC50 (MV4-11 cells) |
| --- | --- | --- | --- | --- |
| CN(CCC#Cc1cccc2c1CN(C1CCC(=O)NC1=O)C2=O)c1ccc(C(=O)Nc2cc3[nH]c([C@H]4CCCN4C)cc3cn2)cc1 (stereo partly drawn) [Example 87, 4-((4-(2-(2,6-dioxopiperidin-3-yl)-1-oxoisoindolin-4-yl)but-3-yn-1-yl)(methyl)amino)-N-(2-((R)-1-methylpyrrolidin-2-yl)-1H-pyrrolo[3,2-c]pyridin-6-yl)benzamide] | A (Category A: A ≥ 75% degradation) | A (Category A: A ≥ 75% degradation) | B (Category B: 50% ≤ B < 75% degradation) | ≤ 100 nM |
| CN1CCC[C@@H]1c1cc2cnc(NC(=O)c3ccc(OC4CCN(CC5CCN(c6ccc7c(c6)C(=O)N(C6CCC(=O)NC6=O)C7=O)CC5)CC4)cc3)cc2[nH]1 (stereo partly drawn) [Example 124, 4-((1-((1-(2-(2,6-dioxopiperidin-3-yl)-1,3-dioxoisoindolin-5-yl)piperidin-4-yl)methyl)piperidin-4-yl)oxy)-N-(2-((R)-1-methylpyrrolidin-2-yl)-1H-pyrrolo[3,2-c]pyridin-6-yl)benzamide] | B (Category B: 50% ≤ B < 75% degradation) | A (Category A: A ≥ 75% degradation) | A (Category A: A ≥ 75% degradation) | ≤ 100 nM |
| CN1CCC[C@@H]1c1cc2cnc(NC(=O)c3ccc(-c4cnn(CCCC5CCN(c6cccc(C(=O)N[C@H]7CCC(=O)NC7=O)n6)CC5)c4)cc3)cc2[nH]1 [Example 60, N—((S)-2,6-dioxopiperidin-3-yl)-6-(4-(3-(4-(4-((2-((R)-1-methylpyrrolidin-2-yl)-1H-pyrrolo[3,2-c]pyridin-6-yl)carbamoyl)phenyl)-1H-pyrazol-1-yl)propyl)piperidin-1-yl)picolinamide] | A (Category A: A ≥ 75% degradation) | A (Category A: A ≥ 75% degradation) | A (Category A: A ≥ 75% degradation) | ≤ 100 nM |
| CN1CCC[C@@H]1c1cc2cnc(NC(=O)c3ccc(N4CCN(CC5CCN(c6cccc7c6CN([C@@H]6CCC(=O)NC6=O)C7=O)CC5)CC4)cc3)cc2[nH]1 (relative stereo) [Example 118, 4-(4-((1-(2-((rel-R)-2,6-dioxopiperidin-3-yl)-1-oxoisoindolin-4-yl)piperidin-4-yl)methyl)piperazin-1-yl)-N-(2-((R)-1-methylpyrrolidin-2-yl)-1H-pyrrolo[3,2-c]pyridin-6-yl)benzamide] | C (Category C: 25% ≤ C < 50% degradation) | B (Category B: 50% ≤ B < 75% degradation) | B (Category B: 50% ≤ B < 75% degradation) | ≤ 100 nM |
| CN1CCC[C@@H]1c1cc2cnc(NC(=O)c3cnc(N4CCC(CC#Cc5cccc6c5CN(C5CCC(=O)NC5=O)C6=O)CC4)cn3)cc2[nH]1 (stereo partly drawn) [Example 154, 5-(4-(3-(2-(2,6-dioxopiperidin-3-yl)-1-oxoisoindolin-4-yl)prop-2-yn-1-yl)piperidin-1-yl)-N-(2-((R)-1-methylpyrrolidin-2-yl)-1H-pyrrolo[3,2-c]pyridin-6-yl)pyrazine-2-carboxamide] | A (Category A: A ≥ 75% degradation) | A (Category A: A ≥ 75% degradation) | A (Category A: A ≥ 75% degradation) | ≤ 100 nM |
| CN1CCC[C@@H]1c1cc2cnc(NC(=O)c3ccc(N4CCN(CC#Cc5cccc6c5CN(C5CCC(=O)NC5=O)C6=O)CC4)nc3)cc2[nH]1 (stereo partly drawn) [Example 6, 6-(4-(3-(2-(2,6-dioxopiperidin-3-yl)-1-oxoisoindolin-4-yl)prop-2-yn-1-yl)piperazin-1-yl)-N-(2-((R)-1-methylpyrrolidin-2-yl)-1H-pyrrolo[3,2-c]pyridin-6-yl)nicotinamide] | A (Category A: A ≥ 75% degradation) | A (Category A: A ≥ 75% degradation) | B (Category B: 50% ≤ B < 75% degradation) | ≤ 100 nM |
| CN1CCC[C@@H]1c1cc2cnc(NC(=O)c3ccc(N4CCC(CN5CCN(c6cccc7c6CN(C6CCC(=O)NC6=O)C7=O)CC5)CC4)nc3)cc2[nH]1 (stereo partly drawn) [Example 168, 6-(4-((4-(2-(2,6-dioxopiperidin-3-yl)-1-oxoisoindolin-4-yl)piperazin-1-yl)methyl)piperidin-1-yl)-N-(2-((R)-1-methylpyrrolidin-2-yl)-1H-pyrrolo[3,2-c]pyridin-6-yl)nicotinamide] | A (Category A: A ≥ 75% degradation) | A (Category A: A ≥ 75% degradation) | A (Category A: A ≥ 75% degradation) | ≤ 100 nM |
| CN1CCC[C@@H]1c1cc2cnc(NC(=O)c3ccc(OCCC4CCN(c5cccc6c5CN(C5CCC(=O)NC5=O)C6=O)CC4)c(F)c3)cc2[nH]1 (stereo partly drawn) [Example 206, 4-(2-(1-(2-(2,6-dioxopiperidin-3-yl)-1-oxoisoindolin-4-yl)piperidin-4-yl)ethoxy)-3-fluoro-N-(2-((R)-1-methylpyrrolidin-2-yl)-1H-pyrrolo[3,2-c]pyridin-6-yl)benzamide] | A (Category A: A ≥ 75% degradation) | A (Category A: A ≥ 75% degradation) | A (Category A: A ≥ 75% degradation) | ≤ 100 nM |
| CN1CCC[C@@H]1c1cc2cnc(NC(=O)c3ccc(N4CCC(OCc5ccc(-c6cccc7c6CN(C6CCC(=O)NC6=O)C7=O)cc5)CC4)cc3)cc2[nH]1 (stereo partly drawn) [Example 85, 4-(4-((4-(2-(2,6-dioxopiperidin-3-yl)-1-oxoisoindolin-4-yl)benzyl)oxy)piperidin-1-yl)-N-(2-((R)-1-methylpyrrolidin-2-yl)-1H-pyrrolo[3,2-c]pyridin-6-yl)benzamide] | C (Category C: 25% ≤ C < 50% degradation) | A (Category A: A ≥ 75% degradation) | B (Category B: 50% ≤ B < 75% degradation) | ≤ 100 nM |
| CN1CCC[C@@H]1c1cc2cnc(NC(=O)c3ccc(CCCC#Cc4ccc(F)c5c4CN(C4CCC(=O)NC4=O)C5=O)cc3)cc2[nH]1 (stereo partly drawn) [Example 91, 4-(5-(2-(2,6-dioxopiperidin-3-yl)-7-fluoro-1-oxoisoindolin-4-yl)pent-4-yn-1-yl)-N-(2-((R)-1-methylpyrrolidin-2-yl)-1H-pyrrolo[3,2-c]pyridin-6-yl)benzamide] | A (Category A: A ≥ 75% degradation) | A (Category A: A ≥ 75% degradation) | A (Category A: A ≥ 75% degradation) | ≤ 100 nM |
